In this experiment the target is human GOAT (Homo sapiens (Human), UniProt Q96T53). In words: Determination of hGOAT Activity in HEK293 Cells after Incubation with Test Compound. The class given is cell-based. To be noted: HEK293 cells stably transfected with preproghrelin and human GOAT; octanoate-BSA 100 μM; acyl-ghrelin in medium by ELISA after 5 hours. As to the method: Determination of hGOAT Activity in HEK293 Cells after Incubation with Test Compound
human GOAT, sequence (Q96T53 whole entry): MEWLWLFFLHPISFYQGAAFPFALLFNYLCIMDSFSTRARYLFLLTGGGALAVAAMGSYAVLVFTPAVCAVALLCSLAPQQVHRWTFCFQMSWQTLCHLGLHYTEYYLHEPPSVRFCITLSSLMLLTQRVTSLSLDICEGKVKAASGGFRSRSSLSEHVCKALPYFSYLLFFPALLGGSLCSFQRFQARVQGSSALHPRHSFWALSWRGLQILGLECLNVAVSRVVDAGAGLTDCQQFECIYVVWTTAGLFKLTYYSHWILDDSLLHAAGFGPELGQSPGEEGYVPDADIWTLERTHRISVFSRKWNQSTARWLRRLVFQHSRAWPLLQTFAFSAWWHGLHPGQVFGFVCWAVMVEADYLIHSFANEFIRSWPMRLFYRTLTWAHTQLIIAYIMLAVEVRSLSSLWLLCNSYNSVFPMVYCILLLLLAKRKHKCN
HEK293 cells stably transfected with two expression vectors, one coding for preproghrelin cDNA and a second for the expression of human GOATcDNA are used as a cellular model. After feeding the cells with octanoic acid for 5 hours, acyl-ghrelin is measured in cell culture medium by an ELISA procedure.
Cellline: Hek293 hGOAT/PPGhrl Clone #1B8Sodium octanoate, Sigma, Cat.-No. C5038
BD Poly-D-Lysin 384-well Plates, black-clear polystyrene BD Bioscience Cat.-No. […] ELISA human acylated Ghrelin Kit purchased from Bertin Pharman (detailed composition of buffers e.g. wash-puffer, ELISA buffer not known)
Cells are plated with a density of 5000 cells/well in 384-well poly-D-lysin plates and incubated for 1 day at 37° C., 5% CO2 in DMEM medium, 10% FCS, 1×NEAA, Puromycin (0.5 μg/ml) and G418 (1 mg/ml). Then the medium is changed to a identical medium without FCS and containing Octanoate-BSA (final concentration 100 μM each) and compound in DMSO (final DMSO concentration 0.3%). After incubation for 5 hours acylghrelin in the medium is measured by ELISA
The medium sample is diluted 1:25 in Elisa buffer, A 25 ul aliquot is transferred to a 384-well ELISA plate previously washed 4 times with 100 μL wash buffer, and 25 μl tracer-solution is added. After incubation overnight (˜20 h) at 4° C. temperature the plate is washed 4 times with 100 μl wash-buffer per well. Finally 50 μl Ellman's reagent is added to each well and the plate is incubated in the dark for 20 minutes. The absorbance is measured at 405 nm in an Envision multilabel reader and the amount of acylated ghrelin is calculated according to a acylated ghrelin standard curve provided in the same plate.
The analysis of the data is performed by calculation of the percentage of acyl-ghrelin produced in the presence of test compound compared to the amount of acyl-ghrelin produced in the vehicle control samples. An inhibitor of the GOAT enzyme will give values between 100% CTL (no inhibition) and 0% CTL (complete inhibition). IC50 values are calculated with Assay Explorer or other suited software based on curve fitting of results of 8 different compound concentrations.
Compound `COc1ccc(Cc2c(C)nc3nonc3c2N)nc1` [Example 1, 6-(5-Methoxy-pyridin-2-ylmethyl)-5-methyl-[1,2,5]oxadiazolo[3,4-b]pyridin-7-ylamine] yielded an IC50 of 1.4 nM.
With `Cc1nc2nonc2c(N)c1Cc1cc(C#N)c(C(F)(F)F)cn1` [Example 2, 2-(7-Amino-5-methyl-[1,2,5]oxadiazolo[3,4-b]pyridin-6-ylmethyl)-5-trifluoromethyl-isonicotinonitrile] the figure was 3.6 nM; with `Cc1nc2nonc2c(N)c1Cc1cccc(Cl)n1` [Example 3, 6-(6-Chloro-pyridin-2-ylmethyl)-5-methyl-[1,2,5]oxadiazolo[3,4-b]pyridin-7-ylamine], 0.46 nM; with `Cc1nc2nonc2c(N)c1Cc1ccc(C#N)cn1` [Example 4, 6-(7-Amino-5-methyl-[1,2,5]oxadiazolo[3,4-b]pyridin-6-ylmethyl)-nicotinonitrile], 1.7 nM.
With `Cc1nc2nonc2c(N)c1Cc1ccc(Br)cn1` [Example 5, 6-(5-Bromo-pyridin-2-ylmethyl)-5-methyl-[1,2,5]oxadiazolo[3,4-b]pyridin-7-ylamine] the figure was 0.24 nM; with `Cc1nc2nonc2c(N)c1Cc1ccc(C(F)(F)F)cn1` [Example 6, 5-Methyl-6-(5-trifluoromethyl-pyridin-2-ylmethyl)-[1,2,5]oxadiazolo[3,4-b]pyridin-7-ylamine], 0.61 nM; with `Cc1nc2nonc2c(N)c1Cc1cccc(Br)n1` [Example 7, 6-(6-Bromo-pyridin-2-ylmethyl)-5-methyl-[1,2,5]oxadiazolo[3,4-b]pyridin-7-ylamine], 0.95 nM.
The value for `Cc1nc2nonc2c(N)c1Cc1ccc(Cl)cn1` [Example 8, 6-(5-Chloro-pyridin-2-ylmethyl)-5-methyl-[1,2,5]oxadiazolo[3,4-b]pyridin-7-ylamine] was 0.42 nM.
The compound `Cc1nc2nonc2c(N)c1Cc1ccc(C(F)F)cn1` [Example 9, 6-(5-Difluoromethyl-pyridin-2-ylmethyl)-5-methyl-[1,2,5]oxadiazolo[3,4-b]pyridin-7-ylamine] came in with an IC50 of 0.44 nM.
The value for `COC(=O)Cc1ccc(Cc2c(C)nc3nonc3c2N)nc1` [Example 10, [6-(7-Amino-5-methyl-[1,2,5]oxadiazolo[3,4-b]pyridin-6-ylmethyl)-pyridin-3-yl]-acetic Acid Methyl Ester] was 13 nM; that for `Cc1nc2nonc2c(N)c1Cc1ccc(C(C)(F)F)cn1` [Example 11, 6-[5-(1,1-Difluoro-ethyl)-pyridin-2-ylmethyl]-5-methyl-[1,2,5]oxadiazolo[3,4-b]pyridin-7-ylamine] was 0.13 nM; that for `Cc1nc2nonc2c(N)c1Cc1ccc(F)cn1` [Example 12, 6-(5-Fluoro-pyridin-2-ylmethyl)-5-methyl-[1,2,5]oxadiazolo[3,4-b]pyridin-7-ylamine] was 6.5 nM.
Consider `Cc1nc2nonc2c(N)c1Cc1cccc(F)n1` [Example 13, 6-(6-Fluoro-pyridin-2-ylmethyl)-5-methyl-[1,2,5]oxadiazolo[3,4-b]pyridin-7-ylamine], for which the IC50 stood at 4.4 nM.
With `Cc1nc2nonc2c(N)c1Cc1ccc(OC(F)F)cn1` [Example 14, 6-(5-Difluoromethoxy-pyridin-2-ylmethyl)-5-methyl-[1,2,5]oxadiazolo[3,4-b]pyridin-7-ylamine] the figure was 0.67 nM; with `Cc1nc2nonc2c(N)c1Cc1ccc(OC(F)F)c(Br)n1` [Example 15, 6-(6-Bromo-5-difluoromethoxy-pyridin-2-ylmethyl)-5-methyl-[1,2,5]oxadiazolo[3,4-b]pyridin-7-ylamine], 0.038 nM.
With `CSc1cccc(Cc2c(C)nc3nonc3c2N)n1` [Example 16, 5-Methyl-6-(6-methylsulfanyl-pyridin-2-ylmethyl)-[1,2,5]oxadiazolo[3,4-b]pyridin-7-ylamine] the figure was 0.28 nM; with `Cc1nc2nonc2c(N)c1Cc1ccc(OC(F)(F)F)cn1` [Example 17, 5-Methyl-6-(5-trifluoromethoxy-pyridin-2-ylmethyl)-[1,2,5]oxadiazolo[3,4-b]pyridin-7-ylamine], 0.22 nM; with `Cc1nc2nonc2c(N)c1Cc1ccc2c(n1)OCCO2` [Example 18, 6-(2,3-Dihydro-[1,4]dioxino[2,3-b]pyridin-6-ylmethyl)-5-methyl-[1,2,5]oxadiazolo[3,4-b]pyridin-7-ylamine], 0.32 nM.
The value for `Cc1nc2nonc2c(N)c1Cc1cc(Cl)c(C(F)(F)F)cn1` [Example 20, 6-(4-Chloro-5-trifluoromethyl-pyridin-2-ylmethyl)-5-methyl-[1,2,5]oxadiazolo[3,4-b]pyridin-7-ylamine] was 0.17 nM; that for `Cc1nc2nonc2c(N)c1Cc1ccc(C#N)c(Cl)n1` [Example 24, 6-(7-Amino-5-methyl-[1,2,5]oxadiazolo[3,4-b]pyridin-6-ylmethyl)-2-chloro-nicotinonitrile] was 0.12 nM.
For `Cc1nc2nonc2c(N)c1Cc1ccc(F)c(C#N)n1` [Example 25, 6-(7-Amino-5-methyl-[1,2,5]oxadiazolo[3,4-b]pyridin-6-ylmethyl)-3-fluoro-pyridine-2-carbonitrile], the midpoint of inhibition, the IC50, lay at 4.4 nM. This IC50 is about 37-fold higher than that of the compound before.
`Cc1nc2nonc2c(N)c1Cc1cc(C(F)(F)F)ccn1` [Example 26, 5-Methyl-6-(4-trifluoromethyl-pyridin-2-ylmethyl)-[1,2,5]oxadiazolo[3,4-b]pyridin-7-ylamine] gave a concentration for half-maximal inhibition (IC50) of 8.8 nM.
As for `Cc1nc2nonc2c(N)c1Cc1cc(C#N)ccn1` [Example 28, 2-(7-Amino-5-methyl-[1,2,5]oxadiazolo[3,4-b]pyridin-6-ylmethyl)-isonicotinonitrile], half-maximal inhibition (IC50) required 48 nM.
With `Cc1nc2nonc2c(N)c1Cc1cc(C(N)=O)ccn1` [Example 29, 2-(7-Amino-5-methyl-[1,2,5]oxadiazolo[3,4-b]pyridin-6-ylmethyl)-isonicotinamide] the figure was 16 nM; with `Cc1nc2nonc2c(N)c1Cc1ncc(Cl)cn1` [Example 30, 6-(5-Chloro-pyrimidin-2-ylmethyl)-5-methyl-[1,2,5]oxadiazolo[3,4-b]pyridin-7-ylamine], 2.7 nM.
`Cc1nc2nonc2c(N)c1Cc1ccc(OC(F)(F)F)c(C#N)n1` [Example 33, 6-(7-Amino-5-methyl-[1,2,5]oxadiazolo[3,4-b]pyridin-6-ylmethyl)-3-trifluoromethoxy-pyridine-2-carbonitrile] showed an IC50 of 0.3 nM.
With `Cc1nc2nonc2c(N)c1Cc1nccc(C(F)(F)F)n1` [Example 34, 5-Methyl-6-(4-trifluoromethyl-pyrimidin-2-ylmethyl)-[1,2,5]oxadiazolo[3,4-b]pyridin-7-ylamine] the figure was 3.2 nM; with `Cc1nc2nonc2c(N)c1Cc1ncc(C(F)(F)F)cn1` [Example 35, 5-methyl-6-[5-(trifluoromethyl)pyrimidin-2-yl]methyl-[1,2,5]oxadiazolo[3,4-b]pyridin-7-amine], 1.8 nM.
Turning to `Cc1nc2nonc2c(N)c1Cc1cc(C(F)(F)F)cc(C#N)n1` [Example 36, 6-(7-amino-5-methyl-[1,2,5]oxadiazolo[3,4-b]pyridin-6-ylmethyl)-4-(trifluoromethyl)pyridine-2-carbonitrile], the IC50 turned out to be 6.9 nM.
In the case of `Cc1nc2nonc2c(N)c1Cc1cc(Cl)cc(C#N)n1` [Example 38, 6-(7-amino-5-methyl-[1,2,5]oxadiazolo[3,4-b]pyridin-6-ylmethyl)-4-chloropyridine-2-carbonitrile], the IC50 was determined as 2.6 nM. This IC50 is about 2.7-fold lower than that of the compound before.
